{
  "source": "patent US11446297B2",
  "about": "“Methods for treating hemolytic diseases and sickle cell disease” (Purdue Research, priority 2015, dated 2022)",
  "origin": "cited, not measured here",
  "target": "Syk (Homo sapiens, UniProt P43405)",
  "details": "first IC column; kinase assay; Inactive@ 80 μM (r14)",
  "data": [
    {"smiles": "COc1ccc2c(c1)c(/C=C1\\C(=O)Nc3ccc(S(=O)(=O)N(C)C)cc31)cn2C", "note": "[Compd 6]", "values": [
      {"measurement": "IC@ (result in words)", "value": "Inactive@"}
    ]}
  ]
}
